Like-named read-outs stand apart in the source and are kept apart here.
Legend:
[1] = cited from earlier work
[2] = oral; no dose-limiting toxicities; cited from earlier work
[3] = cited from earlier work; remark: listed apart in the source
donor CD8^+ T-cells = assay: T cell phenotyping in the GvL mouse model (WEHI-3B), spleen day 12; type: in vivo; conditions: allo-transplanted leukemia bearing BALB/c mice, vs vehicle
Source text: FIG. 3: MDM2-inhibition promotes cytotoxicity and longevity of donor T cells • (a-h) Scatter plots and representative histograms show expression of Perforin (a, b), CD107a (c, d), IFN-γ (e, f), TNF-α (g, h) of CD8^+ T-cells isolated from spleen on day 12 following allo-HCT of WEHI-3B leukemia bearing BALB/c mice transplanted with C57BL/6 BM plus allogeneic C57BL/6 T-cells and treated with either vehicle or MDM2-inhibitor RG-7112. Mean value±SEM from n=14-19 biologically independent animals per group from 2 experiments are shown and p-values were calculated using two-sided Mann-Whitney U test. (m) Quantification of donor-derived (H-2kb+) TCRb+CD8+CD27+ TIM3+ T cells from allo-transplanted leukemia bearing BALB/c mice treated with RG-7112 or vehicle as indicated. (a) A representative flow cytometry histogram depicts the mean fluorescence intensity (MFI) and scatter plot showing fold-change of MFI for CD69 of all living donor (H-2kb^+) CD8^+ T cells from leukemia bearing BALB/c mice undergoing allo-HCT and being treated with vehicle. […] P-values were calculated using the two-sided Mann-Whitney U test. […] P-values were calculated using the two-sided Mann-Whitney U test. No difference in CD8 T-cells/all CD3 T-cells was detected. […] Mean value±SEM from n=14-19 biologically independent animals per group from 2 experiments are shown and p-value was calculated using two-sided Mann-Whitney U test. […]

[4] = single oral doses; GI toxicities the most common AEs; cited from earlier work
advanced solid tumor = conditions: cited from earlier work
[5] = combined with pimasertib, cited from earlier work
[6] = tested on: p53-knockdown OCI-AML3 cells; assay: Expression in p53-knockdown cells (flow cytometry, western blot); type: cell-based, human; conditions: FIG. 9a
Experimental: MFI of control-treated cells was set as 1.0. P-values were calculated using the two-sided Student's unpaired t-test.
MFI of control-treated cells was set as 1.0. P-values were calculated using two-sided Student's unpaired t-test.
(a) Representative western blot (left panel) showing the expression of MDM2, p53 and loading control (GAPDH) in WT OCI-AML3 cells or p53 knockdown OCI-AML3 cells exposed to […] doxorubicin for 4 hours, when indicated. Right panel: Quantification of the relative intensity of the protein bands for each group.
P53 knockdown cells have been previously described (24). The p53 shRNA (p53.1224) had been cloned into a retroviral vector that co-expressed red fluorescent protein and which could be induced by doxycycline (24). […]
For excluding dead cells, the LIVE/DEAD Fixable Dead Cell Stain kit (Molecular Probes, USA) or LIVE/DEAD™ Fixable Aqua Dead Cell Stain Kit (Thermo Scientific) along with True Stain FcX (BioLegend) were used, according to the manufacturer's instructions. For all flurochrome-conjugated antibodies, optimal concentrations were determined using titration experiments. […] Data were acquired on the BD LSR Fortessa flow cytometer (BD Biosciences, Germany) and analyzed using Flow Jo software version 10.4 (Tree Star, USA). […]

OCI-AML3 cells = assay: Killing assay with recombinant hTRAIL, viability by flow cytometry; type: cell-based, human; conditions: p53^−/− AML cells, FIG. 9e
Experimental: After 48 hours limiting concentrations of hTRAIL (TNFSF 10) were added for 24 hours, where indicated. The viability of the AML cells was measured by flow cytometry. […] P-values were calculated using two-sided Student's unpaired t-test.
Where indicated wildtype OCI-AML3 (WT) or p53 knockout (p53^−/−) OCI-AML3 were incubated with 1 μM MDM2-inhibitor RG7112. After 48 hours limiting concentrations of hTRAIL (TNFSF 10) were added for 24 hours where indicated. Viability of cells was measured by flow cytometry. […] P-values were calculated using two-sided Student's unpaired t-test.
For Killing assays using recombinant hTRAIL ((TNFSF 10, Apo-2L, CD253;) […]®; ENZO), the ligand was added for 24 h 0.5 μg/ml (1:1000) for optimal killing and 0.25 μg/ml (1:2000) for limiting killing conditions to OCI-AML3 target cells. Viability of cells was assessed by LIVE/DEAD™ Fixable Aqua Dead Cell Stain Kit (Thermo Scientific). Data were acquired on the BD LSR Fortessa flow cytometer (BD Biosciences) and analyzed using Flow Jo software version 10.4 (Tree Star).

CC(C)[C@@H](CS(=O)(=O)C(C)C)N1C(=O)[C@@](C)(CC(=O)O)C[C@H](c2cccc(Cl)c2)[C@H]1c1ccc(Cl)cc1 [AMG 232]
MTD ([1]; dose escalation discontinued because of gastrointestinal AEs): not reached
treatment-related AE decreased appetite ([1]; in vivo): 25%
treatment-related AE diarrhea ([1]; in vivo): 56%
treatment-related AE nausea ([1]; in vivo): 58%
treatment-related AE vomiting ([1]; in vivo): 33%

CCN1[C@@H](C(=O)NC23CCC(C(=O)O)(CC2)CC3)[C@H](c2cccc(Cl)c2F)[C@]2(C(=O)Nc3cc(Cl)ccc32)C12CCCCC2 [APG-115]
optimum dose [2]: 100 mg

COc1ncc(-c2nc3c(n2C(C)C)[C@H](c2ccc(Cl)cc2)N(c2cc(Cl)cn(C)c2=O)C3=O)c(OC)n1 [HDM201]
grade 3/4 adverse event anemia ([3]; Reg 1): 8%
grade 3/4 adverse event neutropenia ([3]; Reg 1): 26%
grade 3/4 adverse event thrombocytopenia ([3]; Reg 1): 24%
grade 3/4 adverse event anemia ([3]; Reg 2): 17%
grade 3/4 adverse event neutropenia ([3]; Reg 2): 14%
grade 3/4 adverse event thrombocytopenia ([3]; Reg 2): 28%

CCOc1cc(C(C)(C)C)ccc1C1=N[C@@](C)(c2ccc(Cl)cc2)[C@@](C)(c2ccc(Cl)cc2)N1C(=O)N1CCN(CCCS(C)(=O)=O)CC1 [RG7112]
CD8 T-cells/all CD3 T-cells (donor CD8^+ T-cells): No difference
tolerability [4]: generally well tolerated

CC(C)(C)C[C@@H]1N[C@@H](C(=O)N[C@H]2CC[C@H](O)CC2)[C@H](c2cccc(Cl)c2F)[C@]12C(=O)Nc1cc(Cl)ccc12 [SAR405838]
3-month progression free rate (advanced solid tumor; 74 patients treated): 32%
best response, patients (advanced solid tumor; 74 patients treated): 56%
safety profile (advanced solid tumor; patients with advanced solid tumors): acceptable safety profile
adverse event blood creatine phosphokinase ([5]; 26 patients): 77%
adverse event diarrhoea ([5]; 26 patients): 81%
adverse event nausea ([5]; 26 patients): 62%
adverse event vomiting ([5]; 26 patients): 62%
safety profile of the combination [5]: consistent with the safety profiles of both the drugs

COc1cccc2c1C(=O)c1c(O)c3c(c(O)c1C2=O)C[C@@](O)(C(=O)CO)C[C@@H]3O[C@H]1C[C@H](N)[C@H](O)[C@H](C)O1 [doxorubicin]
induction of p53 [6]: decreased

B1: TRAIL: recombinant hTRAIL (TNFSF 10, Apo-2L, CD253) (protein)
chain: TSEETISTVQEKQQNISPLVRERGPQRVAAHITGTRGRSNTLSSPNSKNEKALGRKINSWESSRSGHSFLSNLHLRNGELVIHEKGFYYIYSQTYFRFQEEIKENTKNDKQMVQYIYKYTSYPDPILLMKSARNSCWSKDAEYGLYSIYQGGIFELKENDRIFVSVTNEHLIDMDHEASFFGAFLVG
apoptosis induced (OCI-AML3 cells): less apoptosis

Reference: patent US20230338374A1, “MDM2 INHIBITORS FOR USE IN THE TREATMENT OR PREVENTION OF HEMATOLOGIC NEOPLASM RELAPSE AFTER HEMATOPOIETIC CELL TRANSPLANTATION” (Novartis AG, priority 2020, published 2023)
